IC50 data for three molecules are collected here from article PMC6381124, “Aplysinopsin-type and Bromotyrosine-derived Alkaloids from the South China Sea Sponge Fascaplysinopsis reticulata” (Scientific Reports, 2019).

The nature of series [1]: Cytotoxicity assay (MTT method) against Jurkat cell lines. Conditions: human, Jurkat cells (human T-cell leukemia), Doxorubicin as positive control. The series is classed as cell-based. How it is done:
(§1) The cytotoxicity assay of the isolated compounds were evaluated against human lung carcinoma (A549), human cervical cancer (HeLa), human leukemia (K562), and human T-cell leukemia (Jurkat) cell lines using the MTT method with Doxorubicin as the positive control.

For series [2], the system named is human cervical cancer (HeLa) cell lines. Put plainly: Cytotoxicity assay (MTT method) against HeLa cell lines. The series is classed as cell-based. The settings on record: HeLa cells. How it is done: as §1
In general terms: Tetrazolium dyes change colour on reduction, which living cells bring about.

`COC(=O)NCCCCCNC(=O)C1=NO[C@]2(C=C(Br)C(OC)=C(Br)[C@@H]2O)C1` [Compound 19, Subereamolline D] registered an IC50 in series [1] of 0.88 µM. That is a sub-micromolar value.

Consider `CN1C(=O)N(C)C(O)(CC2(O)C(=O)Nc3ccccc32)C1=O` (single isomer, unassigned; (-)) [(−)-3, (−)-oxoaplysinopsin C], for which half-maximal inhibition in series [2] (IC50) required 61.6 µM.

For `CN1C(=O)N(C)C(O)(CC2(O)C(=O)Nc3ccccc32)C1=O` (single isomer, unassigned; (+)) [(+)-3, (+)-oxoaplysinopsin C], half-maximal inhibition in series [2] (IC50) required 27 µM. This IC50 lies about 2.3-fold lower than the previous one.

One may read the IC50 as the midpoint of a concentration-inhibition curve. A higher IC50 goes with weaker potency in that assay.
